Results reported in patent US7141606B2, “Gabapentin analogues for sleep disorders” (Warner-Lambert Company, priority 2000, dated 2006).

System: Male Sprague-Dawley rats
Experiment: EEG/EMG sleep recording in rats: time in NREMS for 12 hours after PO dosing
Format: in vivo, rat
Details: for Total Minutes (Mean ± SEM) NREMS for 12-Hour Postinjection: rats, N = 8/Treatment, just prior to onset of light phase
Experimental: Male Sprague-Dawley rats weighing 250 to 360 g were used for the experiment. The rats were kept on a 12:12-hr light/dark cycle (lights on at 0900) at 23±1° C. ambient temperature. They had free access water and food during the experiment. Stainless steel jewelry screws for EEG recording were placed over the frontal and parietal cortices. An EMG electrode was implanted in the dorsal neck muscles.
Recording and analyses. After the recovery period (at least 1 week), rats were moved to sleep recording chambers. The rats were allowed relatively unrestricted movement inside the recording cages. A flexible tether connected the electrodes led to an electronic swivel. The leads from the swivel were routed to Grass Model No. 7D polygraphs in an adjacent room for recording EEG and EMG activity. The vigilance states of wakefulness, nonrapid-eye-movement sleep (NREMS), and rapid-eye-movement sleep (REMS) were determined offline in 10 second epochs. The amount of time spent in each vigilance state was calculated every hour and totaled for the 12-hour period post injection. Drug or vehicle were administered PO just prior to the onset of the light phase of the rat's light/dark cycle. Each rat received a vehicle and one drug dose. Results

CCC[C@@H](C)C[C@H](CN)CC(=O)O [Compound 2, (3S, 5R)-3-Aminomethyl-5-methyl-octanoic acid]
Total Minutes (Mean ± SEM) NREMS for 12-Hour Postinjection (1 mg/kg PO): 432 ± 8 min
Total Minutes (Mean ± SEM) NREMS for 12-Hour Postinjection (3 mg/kg PO): 451 ± 9 min
Total Minutes (Mean ± SEM) NREMS for 12-Hour Postinjection (10 mg/kg PO): 481 ± 6 min
Effect on NREMS in rats during the 12-hour period following injection (rats, 1, 3, and 20 mg/kg PO): significantly increased NREMS

C[C@H]1CC(CN)(CC(=O)O)C[C@@H]1C [Compound 1]
Total Minutes (Mean ± SEM) NREMS for 12-Hour Postinjection (3 mg/kg PO): 401 ± 8 min
Total Minutes (Mean ± SEM) NREMS for 12-Hour Postinjection (10 mg/kg PO): 409 ± 12 min
Total Minutes (Mean ± SEM) NREMS for 12-Hour Postinjection (30 mg/kg PO): 424 ± 6 min
Effect on NREMS in rats during the 12-hour period following injection (rats, 3, 10, and 30 mg/kg PO): significantly increased NREMS
